Where no end group is shown, it is not given here.
System: aPL (pool from APS patients)
Assay: Determination of aPL by ELISA on coated peptides / biotinylated peptides (custom immunoassay)
Assay type: binding, Human
Method: Determination of aPL by ELISA—MaxiSorp™ 96 well plates (Nunc) or Streptavidin plate (Thermofisher) were coated with 10 μg/ml recombinant domains of β2GP1, peptides or biotinylated-peptide prior to incubation with aPLA. Secondary anti-human antibodies conjugated to IR800CW (Rockland) or HRP were used. Protein- or peptide-bound antibodies were detected and quantified by the Odyssey system (Li-Cor Biosciences) or absorbance in optical densities (OD) was determined at 405 nm (molecular Devices™ Filtermax).
The de Groot's research group has pointed at the importance of hydrophobic character of the plate during coating of R39-R43 epitope. In order to abrogate of the plate-dependent aPL binding, the Ia-1 and Ib-1 peptides as well as the R39-R43 with a biotin at their N-terminal were synthetized and coated a streptavidin plate. In this configuration, the different peptides are flag oriented in the space preventing any interaction with the plate. It was thus observed that the flag-type orientation of R39-R43-biot leads to 8.52×more interaction with aPL while they show 9.63×more binding for Ib-1-biot presenting the same position. […] The surface plasmon resonance (SPR) technique is used to determine the relative avidity of aPL for R39-R43-biot and Ib-1-biot. The interaction between aPL and immobilized R39-R43-biot or Ib-1-biot is monitored by flowing various concentrations of aPL over a R39-R43-biot- or Ib-1-biot-coated chip surface (FIG. 1C). Through SPR experiments, it appears that aPL avidity for Ib-1-biot presents a resonance unit (RU) of 51.49 at 1/1,000 of dilution and a RU of 27.61 at 1/10,000 of dilution while, at the same dilution, it present a RU of 27.36 and a RU of 17.99 with R39-R43-biot, respectively (FIG. 1C). However, at higher concentrations, the peptides seems to show no differences in the interactions with aPL. […] Considering that IgG valency, it was decided to generate a dimeric Ib-1-biot peptide (Ib-1-biot-2x). This new polypeptide carries thus two optimized epitopes which have the opportunity to interact with two Fab fragment present on aPL. […] At higher concentration, i.e dilution of 1/100, the avidity for dimeric peptide is 28×more than for the monomeric (FIG. 1D).
It was performed a peptide substitution scan of Ib-1-biot VSRGGMRKKKKPLTG (SEQ ID NO: 6) carrying the optimized epitope Ib-1-biot and based on an exchange of the underlined amino acid positions with the 20 main amino acids. The resulting peptide microarrays contained 140 different peptides. It was observed that the peptide substitution of the position n° 1, 2, 12 and 15 have significant influences on the ability to interact with aPL from patients 1, 2, 3, 4 and, in particular, form the plasma pool. Indeed, the substitution of the position 1, 12 or 15 by an Arginine (R) or a Lysine (K) increases the avidity of the peptide for all aPL from patients. […] In this context, the enhancement relative to Ib-1.0-biot-2x of identified peptides was evaluated (FIG. 2A). […] However, streptavidin being known to produce unspecific binding, it was used the ratio between aPL and a pool of human plasma as control (B/B0) (FIG. 2B, upper panel). This representation therefore allows to distinguish the real levels of interactions. It was then performed a dilution assay from dilution of 1/100 to 1/1,200,000 and it was observed relevant differences between the different identified peptides. By comparison of area under the curve (AUC), it was possible to detect the most prone-interacting peptide with aPL. Thus, the peptide IIa-8.0-biot-2x obtained the higher AUC (FIG. 2B, bottom panel). To formally quantify the ability of aPL to interact with IIa-8.0-biot-2x, it was monitored by flowing various concentrations of aPL over a IIa-8.0-biot-2x-coated chip surface (FIG. 2C). […] In FIG. 2C, bottom panel, it can be appreciated more precisely the improvement of the quality of interactions. […]

IIa-8.0-biot-2x: dimeric biotinylated IIa-8.0 peptide; also used associated with streptavidin magnetic beads (RSRGGMRKRKKPLTGRSRGGMRKRKKPLTG; also: dimeric peptide (two IIa-8.0 copies), biotinylated, site not given here)
ability to interact with aPL, enhancement relative to Ib-1.0-biot-2x (ELISA, four dilutions of aPL pool (FIG. 2A)): significantly increased with at least three of the four dilutions | area under the curve (AUC) of dilution assay, B/B0 (dilution 1/100 to 1/1,200,000, aPL pool / pool of healthy plasma (FIG. 2B)): higher AUC
